The values below come from US20260159481A1, “INDOLE DERIVATIVE WITH SUBSTITUENT AND PHARMACEUTICAL USE” (MITOIMMUNE THERAPEUTICS INC., priority 2023, published 2026).

A word on the EC50: it is the concentration needed to bring the measured effect to its halfway point.

SMILES strings stand for the structures.

Format in all cases: cell-based
The subject of test [1] is MLE-12 cells. The test is described as follows: Inhibitory effect on intracellular lipid ROS (BODIPY 581/591 C11) under RSL3. The following applies: 1 μM RSL3, 2 hours, compound 0.01, 0.1, 1 μM, FIG. 1. Here is the method:
To confirm the protective effect against intracellular lipid ROS in lung epithelial cells, MLE-12 cells were seeded at 2×10^5 cells/well in a 12-well plate and cultured for 18 to 24 hours. Example Compound 29 and Fer-1 were diluted to have the final concentration of 0.01, 0.1, and 1 μM and added to each well, and the cells were cultured for 10 minutes. Afterward, RSL3 was treated to have the final concentration of 1 μM, and the cells were cultured for 2 hours. To confirm the intracellular inhibitory effect on lipid ROS, the lipid peroxidation sensor BODIPY™ 581/591 C11 (Invitrogen™; D3861) was used. According to the manufacturer's protocol, the BODIPY™ 581/591 C11 was diluted in the culture broth to have the final concentration of […] and treated, and fluorescence staining was performed after a 30-minute reaction. The MILE-12 cells that were fluorescence-stained with BODIPY™ 581/591 C11 were detached from the 12-well plate using 0.25% trypsin-EDTA and transferred to a microtube. Fluorescence (Ex/Em=500-650 nm/510-665 nm) was measured using BD FACSLyric™, and the relative change compared to the control was calculated.

In test [2] the test system is MLE-12 cells. The test is described as follows: Inhibitory effect on intracellular accumulation of ferrous ions (FerroOrange) under RSL3. The following applies: 1 μM RSL3, 8 hours, FIG. 5. Here is the method:
To confirm the inhibitory effect on intracellular accumulation of ferrous ions in lung epithelial cells, MILE-12 cells were seeded at 2×10^5 cells/well in a 12-well plate and cultured for 18 to 24 hours. Example Compound 29 and Fer-1 were diluted to have the final concentration of 0.01, 0.1, 1, and 10 μM and added to each well, and the cells were cultured for 10 minutes. Afterward, RSL3 was treated to have the final concentration of 1 M, and the cells were cultured for 8 hours. To confirm the inhibitory effect on intracellular accumulation of ferrous ions, FerroOrange (DOJINDO; F374) was used. According to the manufacturer's protocol, FerroOrange was diluted in the culture broth to have the final concentration of 1 M and added, and fluorescence staining was performed after a 30-minute reaction. The MLE-12 cells that were fluorescence-stained with FerroOrange were detached from the 12-well plate using 0.25% trypsin-EDTA and transferred to a microtube. Fluorescence (Ex/Em=580 nm/[…]) was measured using BD FACSLyric™, and the relative change compared to the control (RSL3-untreated group) was calculated.

In test [3] the test system is retinal epithelial cells (ARPE-19). The test is described as follows: Protective effect against cell death due to RSL3 (LDH release), ARPE-19. The following applies: RSL3 0.3 μM, 24 hours. Here is the method:
(§1) To confirm cell death protection effects on cardiac cells, adrenal medullary cells, renal fibroblasts, retinal epithelial cells, lung epithelial cells, renal proximal tubular epithelial cells, hippocampal neurons and fibroblasts, each type of cells were seeded at 4×10^3 to 1.2×10^4 cells/well in a 96-well plate and cultured for 18 to 24 hours. The example compounds were diluted to have the final concentration of 0.001, 0.003, 0.01, 0.3, 1, 3, and 10 μM, respectively, and then added to different wells and cultured for 15 to 20 minutes. […] To confirm the cell death protection effect of the example compounds, the degree of extracellular secretion of lactate dehydrogenase (LDH) was measured using a cytotoxicity LDH assay kit [Dojindo; CK12]. Briefly, at the end of 24-hour treatment of each type of cells with RSL3, 70 μL of the supernatant was taken from the 96-well plate where the cells were cultured and transferred to a new 96-well plate. The assay buffer included in the kit was added at 70 μL/well (equal to that of the sample) and the plate was covered with foil to block light and allowed to react for 15 to 20 minutes at room temperature. While observing a color change of the sample, 35 µL/well of a stop solution was added, an absorbance at 490 nm was measured using an iD3 spectrophotometer, and an EC50 value was calculated.
For orientation: Release of lactate dehydrogenase indicates damage to the cell membrane.

The subject of test [4] is cardiac cells (H9C2). The test is described as follows: Protective effect against t-BHP-induced cell death in cardiac cells (LDH release). Particulars: Rattus norvegicus, t-BHP 400 PM, 2 hours, read-out: EC50, protective effect against cell death due to t-BHP induction. The essentials:
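H9C2 cells were pretreated 15–20 min with compound at final 0.001–30 PM (so in the source), then exposed to t-BHP at final 400 PM for 2 h. LDH released into supernatant was measured colorimetrically at 490 nm after 15 min room-temperature reaction, and EC50 derived.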

In test [5] the test system is fibroblasts (NIH/3T3). The test is described as follows: Protective effect against cell death due to RSL3 (LDH release), NIH/3T3. Particulars: 24 hours. Here is the method: as §1
Test [6] concerns MLE-12 cells. The test is described as follows: Inhibitory effect on mito-ROS (MitoSOX) under RSL3. Particulars: 1 μM RSL3, 2 hours, FIG. 4. Here is the method: To confirm the protective effect against mito-ROS in lung epithelial cells, MILE-12 cells were seeded at 2×10^5 cells/well in a 12-well plate and cultured for 18 to 24 hours. Example Compound 29 and Fer-1 were diluted to have the final concentration of 0.01, 0.1, 1 and 10 M and added to each well, and the cells were cultured for 10 minutes. Afterward, RSL3 was treated to have the final concentration of 1 M, and the cells were cultured for 2 hours. To confirm the inhibitory effect on mito-ROS, the mitochondrial superoxide indicator MitoSOX™ (Invitrogen™; C6827) was used. According to the manufacturer's protocol, MitoSOX was diluted in the culture broth to have the final concentration of […], and fluorescence staining was performed after a 30-minute reaction. The MLE-12 cells fluorescence-strained with MitoSOX were detached from the 12-well plate using 0.25% trypsin-EDTA and transferred to a microtube, and fluorescence (Ex/Em=˜396 nm/610 nm) was measured using BD FACSLyric™, and the relative change compared to the control (RSL3-untreated group) was calculated.

For `OCCOCCOCc1cc(NC2CCOCC2)c2[nH]c(-c3ccccc3)cc2c1` [Example 29, 2-(2-((2-phenyl-7-((tetrahydro-2H-pyran-4-yl)amino)-1H-indol-5-yl)methoxy)ethoxy)ethan-1-ol], the “intracellular lipid ROS increased by RSL3 treatment” value in test [1] was “significantly decreased at 0.01, 0.1, and 1 μM”. The “intracellular ferrous ions increased by RSL3 treatment” value in test [2] was “significantly decreased at 0.1 and 1 μM”. Moreover, the 50% effective concentration (EC50) in test [3] (Homo sapiens) is at most 100 nM; in test [4], at most 300 nM; in test [5] (Mus musculus, NIH3T3, RSL3 3 μM), 100 to 1000 nM. Moreover, in test [6], the “mito-ROS increased by RSL3 treatment” value is “significantly decreased at 0.01, 0.1, and 1 μM”.
Take `CCOC(=O)c1ccc(NC2CCCCC2)c(N)c1` [Fer-1, ferrostatin-1, reference compound]: the “intracellular lipid ROS increased by RSL3 treatment” value in test [1] is “significantly decreased at 0.01, 0.1, and 1 μM”. The “intracellular ferrous ions increased by RSL3 treatment” value in test [2] was “significantly decreased at 0.1 and 1 μM”. Moreover, the results for the EC50 in test [3] and in test [5] (RSL3 3 μM) were at most 100 nM and 100 to 1000 nM, respectively. The “mito-ROS increased by RSL3 treatment” value in test [6] is “significantly decreased at 0.01, 0.1, and 1 μM”.
